MIC data for 14 compounds are collected here from ChEMBL document CHEMBL3044662, “Synthesis and potential antibacterial activity of new rhodanine-3-acetic acid derivatives” (2013).

What all share (format): functional
For experiment [1], the system named is Staphylococcus aureus. Nature of the experiment: Antibacterial activity against Staphylococcus aureus KCTC 503 assessed as growth inhibition after 20 hr by two-fold serial dilution method. The note with it: KCTC 503, 20 h.
In experiment [2] the test system is Staphylococcus aureus. Nature of the experiment: Antibacterial activity against Staphylococcus aureus subsp. aureus RN4220 assessed as growth inhibition after 20 hr by two-fold serial dilution method. The note with it: RN4220, 20 h.
Experiment [3] concerns Escherichia coli. The experiment is described as follows: Antibacterial activity against Escherichia coli CCARM 1356 assessed as growth inhibition after 20 hr by two-fold serial dilution method. As to conditions: CCARM 1356, 20 h.
Experiment [4] concerns Escherichia coli. Nature of the experiment: Antibacterial activity against Escherichia coli CCARM 1924 assessed as growth inhibition after 20 hr by two-fold serial dilution method. The note with it: CCARM 1924, 20 h.
In experiment [5] the test system is Staphylococcus aureus. Nature of the experiment: Antibacterial activity against quinolene-resistant Staphylococcus aureus CCARM 3519 clinical isolate assessed as growth inhibition after 20 hr by two-fold serial dilution method. The note with it: CCARM 3519, 20 h.
Experiment [6] concerns Staphylococcus aureus. The experiment is described as follows: Antibacterial activity against methicillin-resistant Staphylococcus aureus CCARM 3506 clinical isolate assessed as growth inhibition after 20 hr by two-fold serial dilution method. The note with it: CCARM 3506, 20 h.
The subject of experiment [7] is Staphylococcus aureus. The experiment is described as follows: Antibacterial activity against methicillin-resistant Staphylococcus aureus CCARM 3167 clinical isolate assessed as growth inhibition after 20 hr by two-fold serial dilution method. As to conditions: CCARM 3167, 20 h.
Experiment [8] relates to Staphylococcus aureus. The experiment is described as follows: Antibacterial activity against quinolene-resistant Staphylococcus aureus CCARM 3505 clinical isolate assessed as growth inhibition after 20 hr by two-fold serial dilution method. The note with it: CCARM 3505, 20 h.

Values after ≈ are worked out from the molar mass of the structure shown. Some results are limits rather than exact numbers.

For the compound `Cc1ccc(COc2ccc3cc(/C=C4\SC(=S)N(CC(=O)O)C4=O)ccc3c2)cc1C`, the MIC in the experiment with Staphylococcus aureus [1], in the experiment with Staphylococcus aureus [2], with Escherichia coli [3] and in the experiment on Escherichia coli [4] was greater than 64 mg/L each time.
In the case of `O=C(O)CN1C(=O)/C(=C/c2ccc3cc(OCc4ccccc4Cl)ccc3c2)SC1=S`, the MIC in the experiment with Staphylococcus aureus [1], with Staphylococcus aureus [2], in the experiment on Escherichia coli [3] and in the experiment with Escherichia coli [4] was greater than 64 mg/L in each case.
Consider `O=C(O)CN1C(=O)/C(=C/c2ccc3cc(OCc4ccc(Br)cc4)ccc3c2)SC1=S`, for which the MIC in the experiment with Staphylococcus aureus [1] was 2 mg/L (≈ 3.89 µM); with Staphylococcus aureus [2], 2 mg/L (≈ 3.89 µM); in the experiment with Escherichia coli [3], greater than 64 mg/L; in the experiment on Staphylococcus aureus [5], 4 mg/L (≈ 7.78 µM); in the experiment on Staphylococcus aureus [6] it was 1 mg/L (≈ 1.94 µM); in the experiment with Escherichia coli [4], greater than 64 mg/L. The MIC in the experiment with Staphylococcus aureus [7] was found to be 1 mg/L (≈ 1.94 µM); in the experiment on Staphylococcus aureus [8] it was 4 mg/L (≈ 7.78 µM).
As for `O=C(O)CN1C(=O)/C(=C/c2ccc3cc(OCc4cccc(Br)c4)ccc3c2)SC1=S`, the MIC is 64 mg/L (≈ 124 µM) with Staphylococcus aureus [1]; 32 mg/L (≈ 62.2 µM) in the experiment with Staphylococcus aureus [2]; greater than 64 mg/L with Escherichia coli [3]; greater than 64 mg/L in the experiment with Staphylococcus aureus [5]; 64 mg/L (≈ 124 µM) in the experiment with Staphylococcus aureus [6]; greater than 64 mg/L in the experiment with Escherichia coli [4]. For the same compound, the MIC with Staphylococcus aureus [7] was 64 mg/L (≈ 124 µM); with Staphylococcus aureus [8], greater than 64 mg/L.
On to `O=C(O)CN1C(=O)/C(=C/c2ccc3cc(OCc4ccccc4)ccc3c2)SC1=S`, for which the MIC is 64 mg/L (≈ 147 µM) in the experiment on Staphylococcus aureus [1]; 64 mg/L (≈ 147 µM) in the experiment on Staphylococcus aureus [2]; greater than 64 mg/L in the experiment with Escherichia coli [3]; 64 mg/L (≈ 147 µM) in the experiment on Staphylococcus aureus [5]; 64 mg/L (≈ 147 µM) in the experiment with Staphylococcus aureus [6]; greater than 64 mg/L with Escherichia coli [4]. Further, the MIC in the experiment with Staphylococcus aureus [7] and in the experiment on Staphylococcus aureus [8] was 64 mg/L (≈ 147 µM) throughout.
For `O=C(O)CN1C(=O)/C(=C/c2ccc3cc(O)ccc3c2)SC1=S`, the MIC with Staphylococcus aureus [1], in the experiment on Staphylococcus aureus [2], in the experiment on Escherichia coli [3] and with Escherichia coli [4] was greater than 64 mg/L throughout.
Regarding `O=C(O)CN1C(=O)/C(=C/c2ccc3cc(OCc4cccc(Cl)c4)ccc3c2)SC1=S`, the MIC in the experiment on Staphylococcus aureus [1], in the experiment with Staphylococcus aureus [2], in the experiment with Escherichia coli [3] and with Escherichia coli [4] was greater than 64 mg/L throughout.
On to `Cc1ccc(COc2ccc3cc(/C=C4\SC(=S)N(CC(=O)O)C4=O)ccc3c2)cc1`, for which the MIC with Staphylococcus aureus [1] was 4 mg/L (≈ 8.9 µM); in the experiment with Staphylococcus aureus [2], 2 mg/L (≈ 4.45 µM); in the experiment with Escherichia coli [3], greater than 64 mg/L; in the experiment with Staphylococcus aureus [5], 8 mg/L (≈ 17.8 µM); in the experiment on Staphylococcus aureus [6], 4 mg/L (≈ 8.9 µM); in the experiment on Escherichia coli [4], greater than 64 mg/L. In addition, the MIC in the experiment on Staphylococcus aureus [7] was determined as 2 mg/L (≈ 4.45 µM); in the experiment on Staphylococcus aureus [8], 4 mg/L (≈ 8.9 µM).
Consider `O=C(O)CN1C(=O)/C(=C/c2ccc3cc(OCc4cccc(F)c4)ccc3c2)SC1=S`, for which the MIC with Staphylococcus aureus [1], in the experiment on Staphylococcus aureus [2], with Escherichia coli [3] and in the experiment with Escherichia coli [4] was greater than 64 mg/L in each case.
As to `O=C(O)CN1C(=O)/C(=C/c2ccc3cc(OCc4ccc(Cl)c(Cl)c4)ccc3c2)SC1=S`, the MIC in the experiment with Staphylococcus aureus [1], with Staphylococcus aureus [2], with Escherichia coli [3] and with Escherichia coli [4] was greater than 64 mg/L in each case.
Turning to `N#Cc1ccccc1COc1ccc2cc(/C=C3\SC(=S)N(CC(=O)O)C3=O)ccc2c1`, the MIC in the experiment on Staphylococcus aureus [1], in the experiment on Staphylococcus aureus [2], with Escherichia coli [3] and in the experiment on Escherichia coli [4] was greater than 64 mg/L each time.
In the case of `O=C(O)CN1C(=O)/C(=C/c2ccc3cc(OCc4ccc(Cl)cc4Cl)ccc3c2)SC1=S`, the MIC in the experiment with Staphylococcus aureus [1], in the experiment on Staphylococcus aureus [2], in the experiment on Escherichia coli [3] and with Escherichia coli [4] was greater than 64 mg/L in each case.
On to `COc1ccc(COc2ccc3cc(/C=C4\SC(=S)N(CC(=O)O)C4=O)ccc3c2)cc1`, for which the MIC in the experiment on Staphylococcus aureus [1] was 8 mg/L (≈ 17.2 µM); in the experiment with Staphylococcus aureus [2] it was 4 mg/L (≈ 8.59 µM); in the experiment with Escherichia coli [3], greater than 64 mg/L; with Staphylococcus aureus [5], 8 mg/L (≈ 17.2 µM); in the experiment on Staphylococcus aureus [6] it was 2 mg/L (≈ 4.3 µM); with Escherichia coli [4], greater than 64 mg/L. The MIC in the experiment with Staphylococcus aureus [7] came out at 2 mg/L (≈ 4.3 µM).
Regarding `O=C(O)CN1C(=O)/C(=C/c2ccc3cc(OCc4c(Cl)cccc4Cl)ccc3c2)SC1=S`, the MIC in the experiment with Staphylococcus aureus [1], in the experiment on Staphylococcus aureus [2], with Escherichia coli [3] and in the experiment on Escherichia coli [4] was greater than 64 mg/L each time.

What is called MIC is the least concentration at which growth counts as inhibited.
